From US10610537B2, “Methods of producing sialooligosaccharides and uses thereof” (MASAYOSHI LTD., priority 2016, dated 2020)

Legend:
[1] = tested on: NIH3T3 cells; assay: Cell-proliferative activity, NIH3T3 cells (MTT assay method, Cell Counting Kit-8); assay type: cell-based; conditions: for Cell proliferation rate: 24 hours, no addition taken as 100
Method: NIH3T3 cells were cultured in a 96-well microplate to give a cell density of 10^5 cells/well, and solutions of concentration-adjusted test substance 1 and reference standard of sialic acid (N-acetylneuraminic acid produced by Wako Pure Chemical Industries, Ltd. and having a product number of 011-26173) were each added in an amount of 10 μl, followed by culture in a CO2 incubator for 24 hours (37° C., 4.5% CO2). Cell proliferation was measured by the MTT assay method using a kit (Cell Counting Kit-8 produced by DOJINDO Corporation and having a product number of 347-07621).
The cell proliferation rate was calculated at the respective additive concentrations of the test substance 1, with the value for no addition (0 mg/ml) of the test substance 1 being taken as 100.
The cell proliferation rate was calculated at the respective additive concentrations of the reference standard of sialic acid, with the value for no addition (0 mg/ml) of the reference standard of sialic acid being taken as 100.

[2] = tested on: IGF-1; assay: Ability to promote the production of insulin-like growth factor-1 (IGF-1) in mice; assay type: in vivo; conditions: mice (n=5), in drinking water, 5 mg/kg weight/day, 3 weeks, ELISA; untreated control 0.03
Method: Each of the test substances produced in Example 1 and the reference standard of sialic acid (N-acetylneuraminic acid produced by Wako Pure Chemical Industries, Ltd. and having a product number of 011-26173) was dissolved in drinking water, and after adjustment of their concentrations, the individual solutions were administered to mice (n=5); the test substances were administered at 5 mg/kg weight/day. After rearing for 3 weeks, the concentration of IGF-1 in peripheral blood was examined by ELISA method.

Question: How did the Cell proliferation rate ([1]; additive concentration 0.08 mg/ml) turn out when `CC(=O)N[C@H]1[C@H]([C@H](O)[C@H](O)CO)OC(O)(C(=O)O)C[C@@H]1O` (some centres unmarked) [Reference standard of sialic acid, N-acetylneuraminic acid] was run?
Answer: 96

Question: What about the Cell proliferation rate ([1]; additive concentration 0.31 mg/ml) of the same compound?
Answer: 98

Question: And the Cell proliferation rate ([1]; additive concentration 1.25 mg/ml)?
Answer: 101

Question: And the Cell proliferation rate ([1]; additive concentration 2.5 mg/ml)?
Answer: 98

Question: What about the Cell proliferation rate ([1]; additive concentration 5.0 mg/ml) of the same compound?
Answer: 99

Question: And the Cell proliferation rate ([1]; additive concentration 10.0 mg/ml)?
Answer: 102

Question: And the “Change in cell proliferation rate (in words)” value ([1]; additive concentrations up to 10.0 mg/ml)?
Answer: No change was recognized in the proliferation rate

Question: And the “IGF-1 concentration in peripheral blood” value [2]?
Answer: 4.4 µg/mL
